{
  "source": "patent US9545393B2",
  "about": "“Methods and compositions for treating pain” (The Board of Trustees of the Leland Stanford Junior …, priority 2012, dated 2017)",
  "key": {"[1]": {"system": "rats subjected to prostaglandin E2 insult to the right hind paw", "assay": "Randall-Selitto paw pressure test, prostaglandin E2-induced hyperalgesia in rats", "assay_type": "in vivo, rat", "method": "Rats. Male Wistar rats (170-190 g) were provided by Charles River Laboratories or Butantan Institute Animal Facility and housed in a temperature-controlled (22±1° C.) and light-controlled (12/12 h light/dark cycle) room. All rats were housed in their surrounding for at least 3 days. Groups of 5-6 rats were used.\nDrugs Used. 0.1 ml saline (control), carrageenan (200 μg for rats, 100 μg for mice; Marine Colloids), or prostaglandin E2 (100 ng, Sigma) was administered by intraplantar injection into the right hind paw to induce hyperalgesia. […]\nNociception Assessment. […] Nociceptive response was assessed by the von Frey method for mice and the Randall-Selitto method for rats immediately before and 180 minutes after carrageenan or prostaglandin E2 injection. […]\nRandall-Selitto method: Nociceptive threshold was determined using the Randall-Selitto paw pressure test (Ugo-Basile), as previously described (Gutierrez V P, et al., (2008) Crotalphine induces potent antinociception in neuropathic pain by acting at peripheral opioid receptors. European journal of pharmacology 594: 84-92). […]"}, "[2]": {"system": "ALDH2 *1/*2 heterozygous mice", "assay": "von Frey hair test, carrageenan-induced acute pain model, ALDH2 *1/*2 heterozygous mice", "assay_type": "in vivo, mouse", "conditions": "von Frey hair (1.20 gram in FIG. 1E), Alda-1 2 mg/kg s.c."}, "[3]": {"system": "carrageenan-induced edema", "assay": "Edema assessment of the carrageenan-injected paw (plethysmometer)", "assay_type": "in vivo, rat", "conditions": "rats, 3 hr after carrageenan; Alda-1-treated versus vehicle-treated", "method": "Edema Assessment. Inflammation-induced edema of the injected paw was assessed using a plethysmometer (Ugo Basile) (Clapper J R, et al., (2010) Anandamide suppresses pain initiation through a peripheral endocannabinoid mechanism. Nature neuroscience 13: 1265-1270; Van Arman C G, et al., (1965) Some details of the inflammation caused by yeast and carragenin. J Pharmacol Exp Ther 150: 328-333)."}, "neutrophil elastase": {"system": "neutrophil elastase", "assay": "Western blot of neutrophil elastase in paw after carrageenan", "assay_type": "in vivo, rat", "conditions": "rats, carrageenan group treated with Alda-1; Western blot quantification", "method": "(§1) Biochemical Studies In Rats and Mice. Protein was isolated from rat paw tissue at 3 hours after treatment or from liver tissue of mutant or wild type mice. Tissues were homogenized in buffer containing (Hepes 10 mM, NaCl 0.9%, EGTA 1 mM, DTPA 100 μM, Triton-X 1%, Protease and Phosphatase inhibitors (AEBSF, Aprotinin, Bestatin, E-64, Leupeptin, Pepstatin A, Sodium orthovanadate, Sodium molybdate, Sodium tartrate, Imidazole, Cantharidin, (−)-p-Bromolevamisole oxalate and Calyculin A). The samples were centrifuged at 700 g for 5 min at 4° C. Mitochondrial fraction from liver was obtained as previously described (Chen, et al. (2008) Activation of aldehyde dehydrogenase-2 reduces ischemic damage to the heart. Science 321, 1493-1495; Sun, L., et al. ALDH2 activator inhibits increased myocardial infarction injury by nitroglycerin tolerance. Sci Transl Med 3, 107ra111). Activation of aldehyde dehydrogenase-2 reduces ischemic damage to the heart. Science 2008; 321:1493-5). The protein concentration was determined in the supernatants by using Bradford (Bradford, M. M. (1976). A rapid and sensitive method for the quantitation of microgram quantities of protein utilizing the principle of protein-dye binding. Anal Biochem 72, 248-254).\n(§2) Western blot analysis. […] Quantification analysis of blots was performed with Image J software, using GAPDH as a loading control."}, "[4]": {"system": "4-hydroxynonenal (4-HNE) protein adducts", "assay": "Western blot of 4-HNE protein adducts in inflamed paw", "assay_type": "in vivo, rat", "conditions": "rats, 3 hours after carrageenan; P<0.01", "method": "as §1, §2"}, "[5]": {"system": "early growth response protein 1 (EGR1)", "assay": "EGR1 immunohistochemistry of L4-L6 spinal cord", "assay_type": "in vivo, rat", "conditions": "rats, 3 hours after carrageenan; carrageenan alone increased ~5 fold", "method": "Immunohistochemistry. Animals were anesthetized with ketamine (90 mg/kg) and xylazine (15 mg/kg) after 3 hours of the experimental protocol. Subsequently, animals were perfused with 4% paraformaldehyde (PFA) in 0.1 M phosphate buffer (PB, pH 7.4). Spinal cord sections (L4-L6) were removed, post-fixed for 4 h in PFA (4%), and transferred to a 30% sucrose solution in PB to ensure cryoprotection. […] The sections were immunostained for early growth response-1 gene (EGR1) expression, using a rabbit polyclonal antibody (Santa Cruz Biotechnology 1:500) in PB containing 0.3% Triton X-100 and 5% normal donkey serum. Incubations with primary antibody were conducted overnight at 24° C. The sections were then washed in PB and incubated with a biotinylated donkey anti-rabbit serum (Vector, Burlingame 1:200) in PB for 2 h at 24° C. The sections were washed again in PB and incubated with the avidin-biotin-peroxidase complex (ABC Elite, Vector Labs, USA). The sections were then reacted with 0.05% 3,3-diaminobenzidine and 0.01% hydrogen peroxide in PB. Intensification was conducted with 0.05% osmium tetroxide in water. The sections were dehydrated, cleared and mounted on a cover-slip. Normal rat serum served as control. Digital images of light microscopy were collected and cells with positive EGR were counted."}},
  "note": "“Also recorded” adds a separate entry of the source.",
  "data": [
    {"compound": "O=C(NCc1ccc2c(c1)OCO2)c1c(Cl)cccc1Cl", "note": "[Alda-1, N-(1,3-benzodioxol-5-ylmethyl)-2,6-dichlorobenzamide]", "values": [
      {"measurement": "Increase of nociceptive threshold", "setting": "[1]; prostaglandin E2-induced model, Alda-1 2 mg/kg s.c. 15 min before and 30 and 150 min after insult, tested 3 hours after insult", "value": 2, "unit": "fold"},
      {"measurement": "Nociceptive threshold (FIG. 1B)", "setting": "[1]; prostaglandin E2 insult, Alda-1 2 mg/kg s.c., 3 hours after insult, P<0.001", "value": "significantly increased nociceptive threshold"},
      {"measurement": "Response to nociceptive stimulus / pain threshold", "setting": "[2]", "value": "significantly increased pain threshold; also recorded: bringing the response to wild type levels"},
      {"measurement": "Carrageenan-induced increase in paw diameter (edema)", "setting": "[3]", "value": "no differences; also recorded: unaffected"},
      {"measurement": "Neutrophil elastase (marker of inflammation)", "setting": "neutrophil elastase", "value": "220±26"},
      {"measurement": "4-HNE-protein adduct levels in the inflamed paw", "setting": "[4]", "value": "reduced"},
      {"measurement": "EGR1 levels in L4-6 spinal cord (marker of hyperalgesia)", "setting": "[5]", "value": "brought EGR1 levels to those seen in baseline; also recorded: brought back to basal levels"}
    ]}
  ]
}
